# Laboratory results reported in patent US20120135091A1, “METHODS AND COMPOSITIONS FOR ENHANCING LIFESPAN INVOLVING SIRTUIN-MODULATING COMPOUNDS AND CHALCOGENIDES” (priority 2007, published 2012).
# Where two headings read alike, the source gives them in different places.
# How the values were obtained:
# [1] = system: C57BL/6 mice
# Procedure: In one set of experiments, compositions were tested in male C57BL/6 jugular vein catheterized (JVC) mice, 5-6 weeks old (Taconic), by infusing the animals with the liquid sulfide liquid compositions using 1 mL or 5 mL Luer-Lok syringes (Becton Dickison). An IPTT-300 transponder from Bio Medic Data Systems (BMDS) was used to monitor body temperature.
# Each mouse was dosed with liquid compositions through the in-dwelling catheter using an infusion pump (Harvard Apparatus). The mouse was infused until the temperature chip implanted in the skin registered a body temperature of 33° C. […] Once the animal's temperature dropped to 33° C. or below, the infusion was stopped and the mouse was transferred into a hypoxic atmosphere (4.0% O2) together with a control mouse.
# [2] = system: C57BL/6 mice; assay type: in vivo, mouse
# [3] = system: C. elegans; experiment: Rate of egg-laying; assay type: in vivo
# Procedure: Animals were picked as L4 from mixed-stage populations and allowed to develop for 20-30 hours in the same conditions at room temperature. Individual worms were then placed onto NGM plates with a 10 μL spot of OP50 food. The number of embryos laid in 3-5 hours was counted to determine the rate of egg-laying. To create an atmosphere with 2% O2, N2 was mixed with 5% O2 balanced with N2. Smart-Trak series 100 mass flow controllers (Sierra Instruments) were used to mix the gas and to split it into 2 atmospheric chambers. […] In each experiment, 10-15 individuals were included in each group. The data shown in Table 2 are from one experiment that is representative of at least three independent assays.
# [4] = system: mice; details: mouse, in vivo
# Procedure: Experiments were stopped at 60 minutes, and animals still alive were returned to their cage.
# [5] = system: C. elegans; experiment: Brood size measurement; assay type: in vivo; details: moved to H2S, n=5
# Source text: Brood size measurement. To determine the number of viable progeny produced by nematodes, individual fourth-stage larvae (L4) were transferred to NGM plates with OP50 food at room temperature. Animals were moved daily until they quit laying fertilized eggs. Progeny were counted as L4/young adult.
# [6] = system: C. elegans; experiment: Lifespan in H2S-containing atmosphere; assay type: in vivo
# Procedure: (§1) Growing Nematodes in H2S-Containing Atmospheres. Bristol strain N2 (wild-type) and mutant nematode strains were grown at room temperature on nematode growth medium (NGM) plates seeded with live E. coli OP50 food (48). Mutant strains obtained from the C. elegans genetic stock center were as follows: CB130, daf-2(e1370); DR26, daf-16(m26); VC520, isp-1(gk267); MQ130, clk-1(qm30); DA1116, eat-2(ad1116); VC199, sir-2.1(ok434). Plates were maintained in atmospheric chambers sealed with Dow Corning Vacuum Grease (Sigma). […] Gasses were hydrated using gas wash bottles (Fisher), and moved through ⅛ inch outer diameter FEP tubing (Cole Parmer) with connections by snap connectors (Cole Parmer), stainless steel quick connect fittings or compression fittings (Seattle Fluid Systems). […] All compressed gas mixtures used in this study were obtained from Byrne Gas and were certified standard to within 2% of indicated concentration. Flow tubes (Aalborg) were used to distribute the gas mixture to different chambers. Gas flow rate was 100 cc/m to small boxes (100-300 mL) and 800 cc/m to the large boxes (1-3 L) used to culture nematode strains at room temperature. At these flow rates, the gaseous environment of the atmospheric chambers is exchanged every 20-30 minutes. […] Data were collected using Chart software with a Powerlab data acquisition unit (ADInstruments) and analyzed with EXCEL.
# [7] = system: C. elegans; experiment: Thermotolerance assay (survival at high temperature); assay type: in vivo
# Procedure: as §1
# Thermotolerance Assay. […] Care was taken to prevent the population from starving. Nematodes were picked from these mixed-stage populations as L4 larvae and allowed to develop for 24-48 h at room temperature; however, treated and control animals were always the same age. […] Groups of 20-30 animals were transferred to NGM plates without food and then placed into an atmospheric chamber perfused with the indicated gas at high temperature in an Echotherm 1N35 incubator (Torrey Pines Scientific, NIST traceable) or a VWR incubator model 2005 (VWR International). A ring of palmitic acid around the edge of the plate helped prevent the worms escaping the surface of the agar. […]
# [8] = 4.0% O2 after infusion until body temperature 33° C., test ended at 60 minutes
# [9] = jugular vein infusion until body temperature of 33° C.
compound,measurement,setting,value
NCCS [cysteamine],effective dose,"[1]; mouse, in vivo",7.58 mmol/kg
same,survival in lethal hypoxia,[2]; [8],45 min
N#C[S-].[Na+] [sodium thiocyanate],effective dose,[1]; [9],4.67 mmol/kg
SCCOCCS [2-mercaptoethyl ether],reduction of body (subcutaneous) temperature,"[1]; infusion, primary screen",reduced body temperature
same,toxicity,"[1]; mouse, in vivo",toxic
OC1CCSCC1 [tetrahydrothiopyran-4-ol],survival in lethal hypoxia,[2]; [8],15 min
CC(O)=S [Thioacetic acid],reduction of body (subcutaneous) temperature,"[1]; mouse, in vivo, sc",reduced body temperature
same,enhancement of survival in hypoxia,[2]; lethal hypoxia 4% O2,did not enhance survival in hypoxia
NCCCNCCSP(=O)(O)O [phosphorothioic acid S-(2-((3-aminopropyl)amino)ethyl)ester],reduction of body (subcutaneous) temperature,"[1]; mouse, in vivo, sc",reduced body temperature
same,enhancement of survival in hypoxia,"[2]; mouse, in vivo",did not enhance survival in hypoxia
"S [H2S, hydrogen sulfide]",average rate of egg-laying,"[3]; clk-1(qm30), assayed in 2% O2 + H2S",2.5 ± 1.0 embryos per hour
same,average rate of egg-laying,"[3]; clk-1(qm30), assayed in H2S",3.2 ± 1.1 embryos per hour
same,average rate of egg-laying,"[3]; unadapted (wild-type grown in room air), assayed in 2% O2 + H2S",4.5 ± 1.6 embryos per hour
same,average rate of egg-laying,"[3]; unadapted (wild-type grown in room air), assayed in H2S",8.3 ± 3.0 embryos per hour
same,recovery after survival in 5% O2,[4],no noticeable motor or behavioral deficits
same,number of progeny,[5],227±18
same,delay in reaching 75% mortality versus control population (maximum lifespan),[6]; H2S-treated animals,10 days
same,lifespan,"[6]; raised in H2S until L4, monitored in room air (FIG. 3C)",12.8 ± 0.7 days
same,fraction of H2S-treated animals alive when the last untreated control animal had expired (mean),"[7]; 15 experiments, L4 to 3rd day adults, 33 to 37 C (FIG. 11A)",0.8
same,average of H2S-treated animals alive when all untreated animals had died,"[7]; 15 independent experiments, high temperature",77-80%
same,survival time at high temperature,"[7]; grown in H2S before heat-shock, exposed to 35 C in room air (FIG. 2C)",7.3 h
C[S+](C)[O-] [Dimethylsulfoxide],effective dose,[1]; too high to be considered for pharmaceutical purposes,10 % DMSO
CC(=O)N[C@@H](CS)C(=O)O [N-acetyl-L-cysteine],reduction of body (subcutaneous) temperature,"[1]; infusion, primary screen",did not reduce subcutaneous temperature
[SeH2] [sodium selenide],reduction of body (subcutaneous) temperature,"[1]; mouse, in vivo, sc",did not reduce subcutaneous temperature
O=C(O)CS [thioglycolic acid],reduction of body (subcutaneous) temperature,"[1]; infusion, primary screen",reduced body temperature
same,toxicity,"[1]; mouse, in vivo",toxic
OCCS [2-Mercapto-ethanol],toxicity,"[1]; mouse, in vivo",toxic
same,reduction of body (subcutaneous) temperature,"[1]; mouse, in vivo, sc",reduced body temperature
CSC [dimethyl sulfide],reduction of body (subcutaneous) temperature,"[1]; infusion, primary screen",did not reduce subcutaneous temperature
CS(=O)[O-].[Na+] [sodium methane sulfinate],reduction of body (subcutaneous) temperature,"[1]; infusion, primary screen",did not reduce subcutaneous temperature
C[S-].[Na+] [sodium thiomethoxide],effective dose,[1]; [9],4.61 mmol/kg
same,survival in lethal hypoxia,[2]; [8],60 min
sodium sulfide,effective dose,"[1]; mouse, in vivo",0.79 mmol/kg
same,survival in lethal hypoxia,"[2]; mouse, in vivo",60 min
N=C(N)[SeH] [selenourea],reduction of body (subcutaneous) temperature,"[1]; mouse, in vivo, sc",reduced body temperature
same,enhancement of survival in hypoxia,[2]; lethal hypoxia 4% O2,did not enhance survival in hypoxia
